According to patent publication US9469650B2, “Melampomagnolide B derivatives” (BOARD OF TRUSTEES OF THE UNIVERSITY OF ARKANSAS, priority 2013, dated 2016):

Tests used:
[1] = system: CAKI-1; assay: panel of 60 human tumor cell lines, growth inhibition (Renal Cancer); conditions: CAKI-1
[2] = system: CCRF-CEM; assay: panel of 60 human tumor cell lines, growth inhibition (Leukemia)
[3] = system: NCI-H522; assay: panel of 60 human tumor cell lines, growth inhibition (Non-Small Cell Lung Cancer); conditions: NCI-H522
[4] = system: NCI-H23; assay: as above; conditions: NCI-H23
[5] = system: SK-MEL-2; assay: panel of 60 human tumor cell lines, growth inhibition (Melanoma); conditions: SK-MEL-2
[6] = system: MCF7; assay: panel of 60 human tumor cell lines, growth inhibition (Breast Cancer); conditions: MCF7
[7] = system: M14; assay: panel of 60 human tumor cell lines, growth inhibition (Melanoma); conditions: M14
[8] = system: OVCAR-8; assay: panel of 60 human tumor cell lines, growth inhibition (Ovarian Cancer); conditions: OVCAR-8
[9] = system: SK-OV-3; assay: as above; conditions: SK-OV-3
[10] = system: SF-268; assay: panel of 60 human tumor cell lines, growth inhibition (CNS Cancer); conditions: SF-268
[11] = system: MDA-MB-231/ATCC; assay: panel of 60 human tumor cell lines, growth inhibition (Breast Cancer); conditions: MDA-MB-231/ATCC
[12] = system: LOX IMVI; assay: panel of 60 human tumor cell lines, growth inhibition (Melanoma)
[13] = system: IGROV1; assay: panel of 60 human tumor cell lines, growth inhibition (Ovarian Cancer); conditions: IGROVI
[14] = system: A549/ATCC; assay: panel of 60 human tumor cell lines, growth inhibition (Non-Small Cell Lung Cancer); conditions: A549/ATCC
[15] = system: TK-10; assay: panel of 60 human tumor cell lines, growth inhibition (Renal Cancer); conditions: TK-10
[16] = system: OVCAR-5; assay: panel of 60 human tumor cell lines, growth inhibition (Ovarian Cancer); conditions: OVCAR-5
[17] = system: HT29; assay: panel of 60 human tumor cell lines, growth inhibition (Colon Cancer); conditions: HT29
[18] = system: SW-620; assay: as above; conditions: SW-620

## C=C1C(=O)O[C@H]2[C@H]1CC/C(COC(=O)NCCO)=C\CC[C@@]1(C)O[C@@H]21 [JVM 2-50]
[1]; Log10 Concentration −4.0
  Percent Growth: −65%
[1]; Log10 Concentration −5.0
  Percent Growth: 48%
[1]; Log10 Concentration −6.0
  Percent Growth: 87%
[1]; Log10 Concentration −7.0
  Percent Growth: 91%
[1]; Log10 Concentration −8.0
  Percent Growth: 89%
[1]; NCI five dose
  GI50: 8.99 µM
  TGI: 2.67E−5
[2]; Log10 Concentration −4.0
  Percent Growth: −44%
[2]; Log10 Concentration −5.0
  Percent Growth: 1%
[2]; Log10 Concentration −6.0
  Percent Growth: 83%
[2]; Log10 Concentration −7.0
  Percent Growth: 102%
[2]; Log10 Concentration −8.0
  Percent Growth: 98%
[2]; NCI five dose
  GI50: 2.52 µM
  TGI: 1.03E−5
[3]; Log10 Concentration −4.0
  Percent Growth: −69%
[3]; Log10 Concentration −5.0
  Percent Growth: −56%
[3]; Log10 Concentration −6.0
  Percent Growth: 97%
[3]; Log10 Concentration −7.0
  Percent Growth: 104%
[3]; Log10 Concentration −8.0
  Percent Growth: 98%
[3]; NCI five dose
  GI50: 2.03 µM
  TGI: 4.30E−6
[4]; Log10 Concentration −4.0
  Percent Growth: −53%
[4]; Log10 Concentration −5.0
  Percent Growth: 67%
[4]; Log10 Concentration −6.0
  Percent Growth: 100%
[4]; Log10 Concentration −7.0
  Percent Growth: 102%
[4]; Log10 Concentration −8.0
  Percent Growth: 98%
[4]; NCI five dose
  GI50: 13.8 µM
  TGI: 3.61E−5
[5]; Log10 Concentration −4.0
  Percent Growth: −54%
[5]; Log10 Concentration −5.0
  Percent Growth: 83%
[5]; Log10 Concentration −6.0
  Percent Growth: 115%
[5]; Log10 Concentration −7.0
  Percent Growth: 116%
[5]; Log10 Concentration −8.0
  Percent Growth: 106%
[5]; NCI five dose
  GI50: 18.5 µM
  TGI: 4.18E−5
[6]; Log10 Concentration −4.0
  Percent Growth: −59%
[6]; Log10 Concentration −5.0
  Percent Growth: 16%
[6]; Log10 Concentration −6.0
  Percent Growth: 84%
[6]; Log10 Concentration −7.0
  Percent Growth: 89%
[6]; Log10 Concentration −8.0
  Percent Growth: 87%
[6]; NCI five dose
  GI50: 3.16 µM
  TGI: 1.61E−5
[7]; Log10 Concentration −4.0
  Percent Growth: −57%
[7]; Log10 Concentration −5.0
  Percent Growth: 56%
[7]; Log10 Concentration −6.0
  Percent Growth: 92%
[7]; Log10 Concentration −7.0
  Percent Growth: 97%
[7]; Log10 Concentration −8.0
  Percent Growth: 91%
[7]; NCI five dose
  GI50: 11.2 µM
  TGI: 3.11E−5
[8]; Log10 Concentration −4.0
  Percent Growth: −25%
[8]; Log10 Concentration −5.0
  Percent Growth: 62%
[8]; Log10 Concentration −6.0
  Percent Growth: 97%
[8]; Log10 Concentration −7.0
  Percent Growth: 96%
[8]; Log10 Concentration −8.0
  Percent Growth: 98%
[8]; NCI five dose
  GI50: 13.7 µM
  TGI: 5.15E−5
[9]; Log10 Concentration −4.0
  Percent Growth: 23%
[9]; Log10 Concentration −5.0
  Percent Growth: 106%
[9]; Log10 Concentration −6.0
  Percent Growth: 103%
[9]; Log10 Concentration −7.0
  Percent Growth: 103%
[9]; Log10 Concentration −8.0
  Percent Growth: 92%
[9]; NCI five dose
  GI50: 47 µM
  TGI: >1.00E−4
[10]; Log10 Concentration −4.0
  Percent Growth: −51%
[10]; Log10 Concentration −5.0
  Percent Growth: 90%
[10]; Log10 Concentration −6.0
  Percent Growth: 100%
[10]; Log10 Concentration −7.0
  Percent Growth: 99%
[10]; Log10 Concentration −8.0
  Percent Growth: 99%
[10]; NCI five dose
  GI50: 19.3 µM
  TGI: 4.38E−5
[11]; Log10 Concentration −4.0
  Percent Growth: −66%
[11]; Log10 Concentration −5.0
  Percent Growth: 63%
[11]; Log10 Concentration −6.0
  Percent Growth: 99%
[11]; Log10 Concentration −7.0
  Percent Growth: 91%
[11]; Log10 Concentration −8.0
  Percent Growth: 100%
[11]; NCI five dose
  GI50: 12.7 µM
  TGI: 1.10E−5
[12]; Log10 Concentration −4.0
  Percent Growth: −88%
[12]; Log10 Concentration −5.0
  Percent Growth: 67%
[12]; Log10 Concentration −6.0
  Percent Growth: 98%
[12]; Log10 Concentration −7.0
  Percent Growth: 102%
[12]; Log10 Concentration −8.0
  Percent Growth: 100%
[12]; NCI five dose
  GI50: 12.9 µM
  TGI: 2.72E−5
[13]; Log10 Concentration −4.0
  Percent Growth: −36%
[13]; Log10 Concentration −5.0
  Percent Growth: 49%
[13]; Log10 Concentration −6.0
  Percent Growth: 109%
[13]; Log10 Concentration −7.0
  Percent Growth: 106%
[13]; Log10 Concentration −8.0
  Percent Growth: 95%
[13]; NCI five dose
  GI50: 9.79 µM
  TGI: 1.80E−5
[14]; Log10 Concentration −4.0
  Percent Growth: 3%
[14]; Log10 Concentration −5.0
  Percent Growth: 93%
[14]; Log10 Concentration −6.0
  Percent Growth: 96%
[14]; Log10 Concentration −7.0
  Percent Growth: 92%
[14]; Log10 Concentration −8.0
  Percent Growth: 96%
[14]; NCI five dose
  GI50: 30.2 µM
  TGI: >1.00E−4
[15]; Log10 Concentration −4.0
  Percent Growth: −91%
[15]; Log10 Concentration −5.0
  Percent Growth: 55%
[15]; Log10 Concentration −6.0
  Percent Growth: 110%
[15]; Log10 Concentration −7.0
  Percent Growth: 103%
[15]; Log10 Concentration −8.0
  Percent Growth: 100%
[15]; NCI five dose
  GI50: 10.8 µM
[16]; Log10 Concentration −4.0
  Percent Growth: −54%
[16]; Log10 Concentration −5.0
  Percent Growth: 68%
[16]; Log10 Concentration −6.0
  Percent Growth: 85%
[16]; Log10 Concentration −7.0
  Percent Growth: 91%
[16]; Log10 Concentration −8.0
  Percent Growth: 89%
[16]; NCI five dose
  GI50: 14 µM
  TGI: 1.59E−5
[17]; Log10 Concentration −4.0
  Percent Growth: −47%
[17]; Log10 Concentration −5.0
  Percent Growth: 57%
[17]; Log10 Concentration −6.0
  Percent Growth: 109%
[17]; Log10 Concentration −7.0
  Percent Growth: 104%
[17]; Log10 Concentration −8.0
  Percent Growth: 99%
[17]; NCI five dose
  GI50: 11.7 µM
  TGI: 3.55E−5
[18]; Log10 Concentration −4.0
  Percent Growth: −71%
[18]; Log10 Concentration −5.0
  Percent Growth: 93%
[18]; Log10 Concentration −6.0
  Percent Growth: 101%
[18]; Log10 Concentration −7.0
  Percent Growth: 104%
[18]; Log10 Concentration −8.0
  Percent Growth: 102%
[18]; NCI five dose
  GI50: 18.2 µM
  TGI: 3.67E−5
